Reference: PMC8286840, “Identifying SARS-CoV-2 antiviral compounds by screening for small molecule inhibitors of Nsp3 papain-like protease” (Biochemical Journal, 2021)
Structures can show the parent of a compound that is named as a salt. Where two headings read alike, the source gives them in different places.

Assays:
[1] = biological target: T1, SARS-CoV-2 PLpro (nsp3 1564–1878) (Severe acute respiratory syndrome coronavirus 2, UniProt P0DTD1); experiment: biochemical; parameters: FRET-quenched peptide (Pro3) cleavage by PLpro, 10 min pre-incubation, slope over 20 min, normalised to no-compound control; conditions: low concentration screen, read-out: % of control remaining
[2] = biological target: T1, SARS-CoV-2 PLpro (nsp3 1564–1878); experiment: biochemical; parameters: FRET-quenched peptide (Pro3) cleavage by PLpro, 10 min pre-incubation, slope over 20 min, normalised to no-compound control; conditions: high concentration screen, read-out: % of control remaining

Compound: CN1CCN(c2c(F)cc3c(=O)c(C(=O)O)cn4c3c2SCC4)CC1 [Rufloxacin]
- remaining activity at 1.25 µM ([1]; Well no.=2239): 98.6%
- remaining activity at 3.75 µM ([2]; Well no.=2239): 97.3%

Compound: NC(=O)CN1CCCC1=O [Piracetam]
- remaining activity at 1.25 µM ([1]; Well no.=1100): 96.7%
- remaining activity at 3.75 µM ([2]; Well no.=1100): 97.5%

Compound: C=C1CC[C@H](O)C/C1=C\C=C1/CCC[C@]2(C)[C@@H]([C@H](C)CC[C@@H](O)C(C)(C)O)CC[C@@H]12 [24(R),25-Dihydroxyvitamin D3]
- remaining activity at 1.25 µM ([1]; Well no.=4424): 95.3%
- remaining activity at 3.75 µM ([2]; Well no.=4424): 88.6%

Compound: CC(C(=O)O)c1ccccc1 (stereo not shown) [2-Phenylpropionic acid]
- remaining activity at 1.25 µM ([1]; Well no.=6837): 94.4%
- remaining activity at 3.75 µM ([2]; Well no.=6837): 95.3%

Compound: Cc1ccc(C(=O)c2ccc(CC(=O)O)n2C)cc1 [Tolmetin]
- remaining activity at 1.25 µM ([1]; Well no.=1998): 101%
- remaining activity at 3.75 µM ([2]; Well no.=1998): 101%

Compound: CN1CCN(C2=Nc3ccccc3Oc3ccc(Cl)cc32)CC1 [Loxapine succinate]
- remaining activity at 1.25 µM ([1]; Well no.=1125): 93.3%
- remaining activity at 3.75 µM ([2]; Well no.=1125): 89.7%

Compound: CN1C[C@H](C(=O)N[C@]2(C)O[C@@]3(O)[C@@H]4CCCN4C(=O)[C@H](Cc4ccccc4)N3C2=O)C[C@@H]2c3cccc4[nH]cc(c34)C[C@H]21 [Dihydroergotamine methanesulfonate]
- remaining activity at 1.25 µM ([1]; Well no.=543): 102%
- remaining activity at 3.75 µM ([2]; Well no.=543): 104%

Compound: CN(C)CCC(c1ccccc1)c1ccccn1 (stereo not shown) [Pheniramine (Maleate)]
- remaining activity at 1.25 µM ([1]; Well no.=6799): 99.4%
- remaining activity at 3.75 µM ([2]; Well no.=6799): 90%

Compound: CCn1c(=O)c2[nH]c(-c3ccccc3)nc2n(CC)c1=O [1,3-Diethyl-8-phenylxanthine]
- remaining activity at 1.25 µM ([1]; Well no.=204): 98.5%
- remaining activity at 3.75 µM ([2]; Well no.=204): 100%

Compound: COc1c(O)cc2c(c1O)[C@@H]1O[C@H](CO)[C@@H](O)[C@H](O)[C@H]1OC2=O [Bergenin]
- remaining activity at 1.25 µM ([1]; Well no.=3517): 103%
- remaining activity at 3.75 µM ([2]; Well no.=3517): 107%

Compound: CCCCC[C@H](O)/C=C/[C@@H]1[C@@H](CC(=O)CCC(=O)O)[C@@H](O)C[C@@H]1O [2,3-Dinor-6-keto-prostaglandin F1a]
- remaining activity at 1.25 µM ([1]; Well no.=4527): 93.5%
- remaining activity at 3.75 µM ([2]; Well no.=4527): 97.9%

Compound: CC(=O)Oc1ccc(C(c2ccc(OC(C)=O)cc2)c2ccccn2)cc1 [Bisacodyl]
- remaining activity at 1.25 µM ([1]; Well no.=2175): 105%
- remaining activity at 3.75 µM ([2]; Well no.=2175): 102%

Compound: NCCc1c[nH]c2ccc(C(N)=O)cc12 [5-Carboxamidotryptamine maleate]
- remaining activity at 1.25 µM ([1]; Well no.=533): 104%
- remaining activity at 3.75 µM ([2]; Well no.=533): 104%

Compound: NC(=O)COc1c(F)cc(SCCNS(=O)(=O)c2ccccc2)cc1F
- remaining activity at 1.25 µM ([1]; Well no.=5925): 94.7%
- remaining activity at 3.75 µM ([2]; Well no.=5925): 93.7%

Compound: CN(C)CCCSc1ccccc1NC(=O)/C=C/c1ccccc1 [Cinanserin]
- remaining activity at 1.25 µM ([1]; Well no.=2094): 101%
- remaining activity at 3.75 µM ([2]; Well no.=2094): 101%

Compound: C[N+](C)(C)CCOC(=O)CCC(=O)OCC[N+](C)(C)C [Succinylcholine]
- remaining activity at 1.25 µM ([1]; Well no.=2294): 90.2%
- remaining activity at 3.75 µM ([2]; Well no.=2294): 95.9%

Compound: NS(=O)(=O)c1cc2c(cc1Cl)NC(C(Cl)Cl)NS2(=O)=O (stereo not shown) [Trichlormethiazide]
- remaining activity at 1.25 µM ([1]; Well no.=8656): 102%
- remaining activity at 3.75 µM ([2]; Well no.=8656): 99.7%

Compound: CN1CCc2cccc3c2[C@H]1Cc1ccc(O)c(O)c1-3 [Apomorphine hydrochloride hemihydrate]
- remaining activity at 1.25 µM ([1]; Well no.=349): 99.6%
- remaining activity at 3.75 µM ([2]; Well no.=349): 103%

Compound: Nc1nc(O)c(C2=C3C(=Nc4ccccc43)C(=O)NCC2)[nH]1 [Chk2 Inhibitor]
- remaining activity at 1.25 µM ([1]; Well no.=2389): 103%
- remaining activity at 3.75 µM ([2]; Well no.=2389): 103%

Compound: CC(CCc1ccccc1)NCC(O)c1ccc(O)c(C(N)=O)c1 (stereo not shown) [Labetalol hydrochloride]
- remaining activity at 1.25 µM ([1]; Well no.=975): 102%
- remaining activity at 3.75 µM ([2]; Well no.=975): 101%

Compound: NC(=O)NC1NC(=O)NC1=O (stereo not shown) [Allantoin]
- remaining activity at 1.25 µM ([1]; Well no.=6631): 104%
- remaining activity at 1.25 µM ([1]; Well no.=8145): 106%
- remaining activity at 3.75 µM ([2]; Well no.=6631): 106%
- remaining activity at 3.75 µM ([2]; Well no.=8145): 97.6%

Compound: COc1cccc(-n2c(=O)[nH]c3cc(Cl)n(-c4ccc(-c5cccc(OC)c5O)cc4)c3c2=O)c1 [GSK621]
- remaining activity at 1.25 µM ([1]; Well no.=8626): 101%
- remaining activity at 3.75 µM ([2]; Well no.=8626): 99.7%

Compound: CC#CCn1c(N2CCC[C@@H](N)C2)nc2c1c(=O)n(Cc1nc(C)c3ccccc3n1)c(=O)n2C [Linagliptin (BI-1356)]
- remaining activity at 1.25 µM ([1]; Well no.=4883): 97%
- remaining activity at 3.75 µM ([2]; Well no.=4883): 93.9%

Compound: Cc1cc2c(OCC(CNC(C)(C)C)OC(=O)c3ccccc3)cccc2[nH]1 (stereo not shown) [Bopindolol]
- remaining activity at 1.25 µM ([1]; Well no.=1892): 96.2%
- remaining activity at 3.75 µM ([2]; Well no.=1892): 97.2%

Compound: c1ccc2sc(C3(N4CCCCC4)CCCCC3)cc2c1 [BTCP hydrochloride]
- remaining activity at 1.25 µM ([1]; Well no.=325): 101%
- remaining activity at 3.75 µM ([2]; Well no.=325): 96.6%

Compound: Cc1ccc(S(=O)(=O)/C=C/C#N)cc1 [BAY 11-7082]
- remaining activity at 1.25 µM ([1]; Well no.=79): 102%
- remaining activity at 1.25 µM ([1]; Well no.=2360): 98.2%
- remaining activity at 3.75 µM ([2]; Well no.=79): 99.5%
- remaining activity at 3.75 µM ([2]; Well no.=2360): 99.1%
- remaining activity at 3.75 µM ([2]; Well no.=6204): 104%

Compound: Cc1cc(NS(=O)(=O)c2ccc(N)cc2)no1 [Sulfamethoxazole]
- remaining activity at 1.25 µM ([1]; Well no.=4662): 102%
- remaining activity at 3.75 µM ([2]; Well no.=4662): 98.1%
- remaining activity at 3.75 µM ([2]; Well no.=7398): 107%

Compound: N=C(N)NCCC[C@H](N)C(=O)O [L-Arginine]
- remaining activity at 1.25 µM ([1]; Well no.=351): 97.9%
- remaining activity at 1.25 µM ([1]; Well no.=7205): 102%
- remaining activity at 3.75 µM ([2]; Well no.=351): 98.7%
- remaining activity at 3.75 µM ([2]; Well no.=7205): 99.2%

Compound: O=C(NCCCN1CCOCC1)c1cnn2c(-c3ccccc3)cc(-c3ccccc3)nc12 [Reversan]
- remaining activity at 1.25 µM ([1]; Well no.=5656): 96.9%
- remaining activity at 3.75 µM ([2]; Well no.=5656): 98.2%

Compound: NC(Cc1cccc(-c2ccccc2CP(=O)(O)O)c1)C(=O)O (stereo not drawn) [Phenylbenzene-omega-phosphono-alpha-amino acid]
- remaining activity at 1.25 µM ([1]; Well no.=1361): 100%
- remaining activity at 3.75 µM ([2]; Well no.=1361): 100%

Compound: Cn1cnc2c(NC3CCCC3)ncnc21 [N6-Cyclopentyl-9-methyladenine]
- remaining activity at 1.25 µM ([1]; Well no.=988): 96.8%
- remaining activity at 3.75 µM ([2]; Well no.=988): 99.1%

Compound: O=C(O)/C(=C/c1c(C(=O)O)[nH]c2cc(Cl)cc(Cl)c12)c1ccccc1 [MDL 105,519]
- remaining activity at 1.25 µM ([1]; Well no.=803): 95%
- remaining activity at 3.75 µM ([2]; Well no.=803): 93%

Compound: Nc1ccc2ncnc(NCCc3ccc(Oc4ccccc4)cc3)c2c1 [NF-kB Activation Inhibitor]
- remaining activity at 1.25 µM ([1]; Well no.=2566): 97.6%
- remaining activity at 3.75 µM ([2]; Well no.=2566): 98.5%

Compound: CN(C/C=C/C#CC(C)(C)C)Cc1cccc2ccccc12
- remaining activity at 1.25 µM ([1]; Well no.=3894): 102%
- remaining activity at 3.75 µM ([2]; Well no.=3894): 103%
